# Measured values reported in ChEMBL document CHEMBL4483862, “Open-source discovery of chemical leads for next-generation chemoprotective antimalarials” (2018).
# Tested on: Plasmodium berghei
# Experiment: Luciferase/luciferin-expressing antifolate-resistant parasites were used to infect a culture of HepG2 cells that were pre-incubated with compounds. Infected hepatocytes emit light due to the luciferase reaction. Assay results are presented as the percent inhibition of light emission compared to control. […]
# Assay type: functional
# Settings: sporozoite; for IC90: read-out: LUCIFERASE INFECTION ASSAY - IC90
# [1] = read-out: LUCIFERASE INFECTION ASSAY - IC50
SMILES,IC90,IC50 [1],other results
O=c1c(Cl)c(Cl)cnn1-c1ccc(S(=O)(=O)Oc2ccccc2F)cc1,8.08 µM,–,"IC50 (FFLUC_HILL_SLOPE 1.28, FFLUC_R_SQUARED 0.46, HEPG2TOX_HILL_SLOPE 12.5, HEPG2TOX_R_SQUARED 0.895, PBLUC_HILL_SLOPE 2.73, PBLUC_R_SQUARED 0.311, read-out: LUCIFERASE INFECTION ASSAY - IC50): 3.61 µM"
O=C(Nc1nc2ccc(Oc3ccccc3)cc2s1)c1ccc(S(=O)(=O)C(F)F)cc1,> 10 µM,–,"IC50 (HEPG2TOX_HILL_SLOPE 10.3, HEPG2TOX_R_SQUARED 0.512, read-out: LUCIFERASE INFECTION ASSAY - IC50): > 10 µM"
CC(Oc1ccc(Oc2ccc(C(F)(F)F)cc2)cc1)C(=O)N1CCN(c2ccc(C(F)(F)F)cn2)CC1 (configuration not stated),> 6.12 µM,–,"IC50 (HEPG2TOX_HILL_SLOPE 2.54, HEPG2TOX_R_SQUARED 0.907, PBLUC_HILL_SLOPE 2.4, PBLUC_R_SQUARED 0.3, read-out: LUCIFERASE INFECTION ASSAY - IC50): 3 µM"
Cc1ccc2sc(N(Cc3ccccc3)C(=O)CN3CCC(C(N)=O)CC3)nc2c1C,4.19 µM,–,"IC50 (PBLUC_HILL_SLOPE 23.7, PBLUC_R_SQUARED 0.191, read-out: LUCIFERASE INFECTION ASSAY - IC50): 3.82 µM"
Cc1c(C(=O)NC2CC2)sc(=O)n1Cc1ccc(-c2ccccc2)cc1,8.88 µM,1.9 µM,–
CNC(=O)c1cccc(NC(=O)c2cc(-c3ccco3)nc3c2cnn3C(C)C)c1,> 10 µM,> 10 µM,–
CC(C1CC2CCC1C2)n1c(SCc2nnc(-c3ccccc3)o2)nnc1-c1ccco1 (configuration not stated),> 10 µM,–,"IC50 (FFLUC_HILL_SLOPE 12, FFLUC_R_SQUARED 0.233, read-out: LUCIFERASE INFECTION ASSAY - IC50): > 10 µM"
Cc1cc(Oc2ccc(C(F)(F)F)cc2N=CC(C#N)C#N)cc(C)c1Cl,> 8.42 µM,> 8.42 µM,–
N#Cc1c(N2CCCCCC2)nc(N)c2c(N)nc3c(c12)CC(=O)N3c1ccc(F)cc1,1.19 µM,–,"IC50 (FFLUC_HILL_SLOPE 141, FFLUC_R_SQUARED 0.168, PBLUC_HILL_SLOPE 30.3, PBLUC_R_SQUARED 0.605, read-out: LUCIFERASE INFECTION ASSAY - IC50): 1.1 µM"
COc1ccc(CCC(=O)N(c2nc(-c3ccc(C)cc3)cs2)c2cc(C)ccc2C)cc1OC,4.21 µM,–,"IC50 (HEPG2TOX_HILL_SLOPE 2.48, HEPG2TOX_R_SQUARED 0.955, PBLUC_HILL_SLOPE 14.1, PBLUC_R_SQUARED 0.228, read-out: LUCIFERASE INFECTION ASSAY - IC50): 3.6 µM"
COc1ccc(S(=O)(=O)N(CC(=O)c2cc(C)n(-c3ccc(Cl)cc3)c2C)Cc2ccccc2)cc1,> 10 µM,> 10 µM,–
CC(C)c1ccc(NC(=O)Nc2nc(C(N)COCc3ccccc3)cs2)cc1 (configuration not stated),> 8.04 µM,–,"IC50 (PBLUC_HILL_SLOPE 1.46, PBLUC_R_SQUARED 0.665, read-out: LUCIFERASE INFECTION ASSAY - IC50): 4.91 µM"
Cc1nn2c(nc(N3CCCC3)c3ccccc32)c1C=C1C(=O)NC(=S)NC1=O,5.31 µM,–,"IC50 (HEPG2TOX_HILL_SLOPE 1.87, HEPG2TOX_R_SQUARED 0.941, PBLUC_HILL_SLOPE 2.44, PBLUC_R_SQUARED 0.519, read-out: LUCIFERASE INFECTION ASSAY - IC50): 2.16 µM"
Nc1c(C(=O)c2ccccc2)sc(Nc2ccccc2)c1C(=O)Nc1ccc(SC(F)F)cc1,1.28 µM,–,"IC50 (HEPG2TOX_HILL_SLOPE 1.49, HEPG2TOX_R_SQUARED 0.921, PBLUC_HILL_SLOPE 11.4, PBLUC_R_SQUARED 0.694, read-out: LUCIFERASE INFECTION ASSAY - IC50): 1.05 µM"
C#CCCCCCCCCC(=O)NO,> 10 µM,> 10 µM,–
CCOc1ccc(S(=O)(=O)N2CCCCC2)cc1NC(=O)C1CC=CCC1 (configuration not stated),> 10 µM,> 10 µM,–
O=[N+]([O-])c1ccc(Sc2ccc(F)cc2)c2nonc12,> 11.3 µM,–,"IC50 (FFLUC_HILL_SLOPE 1.53, FFLUC_R_SQUARED 0.17, HEPG2TOX_HILL_SLOPE 11.1, HEPG2TOX_R_SQUARED 0.647, PBLUC_HILL_SLOPE 22.5, PBLUC_R_SQUARED 0.184, read-out: LUCIFERASE INFECTION ASSAY - IC50): 10.5 µM"
Clc1ccc(Nc2nccc3nc(-c4ccccc4)[nH]c23)cc1,> 10 µM,–,"IC50 (PBLUC_HILL_SLOPE 3.81, PBLUC_R_SQUARED 0.353, read-out: LUCIFERASE INFECTION ASSAY - IC50): 6.7 µM"
CS(=O)(=O)c1ccc(-c2cnc(N)c(-c3cccc(O)c3)c2)cc1,3.71 µM,–,"IC50 (PBLUC_HILL_SLOPE 17.6, PBLUC_R_SQUARED 0.332, read-out: LUCIFERASE INFECTION ASSAY - IC50): 3.27 µM"
CC1=C(C(=O)Nc2cc(C)on2)C(c2csc(-c3ccc(Cl)cc3)n2)NC(=S)N1C1CC1 (configuration not stated),9.79 µM,–,"IC50 (FFLUC_HILL_SLOPE 2.07, FFLUC_R_SQUARED 0.469, PBLUC_HILL_SLOPE 2.7, PBLUC_R_SQUARED 0.533, read-out: LUCIFERASE INFECTION ASSAY - IC50): 4.34 µM"
COc1ccc(C(=O)Nc2ccc(N3CCOCC3)cc2)cn1,> 10 µM,> 10 µM,–

SMILES,IC90,IC50 [1],other results
Nc1cccc(-c2ccnc3n[nH]c(-c4cccc(Cl)c4)c23)c1,7.12 µM,–,"IC50 (HEPG2TOX_HILL_SLOPE 22.1, HEPG2TOX_R_SQUARED 0.878, PBLUC_HILL_SLOPE 1.59, PBLUC_R_SQUARED 0.529, read-out: LUCIFERASE INFECTION ASSAY - IC50): 1.79 µM"
O=C(NCc1ccc(-n2cccn2)cc1)c1[nH]nc(C2CC2)c1Br,1.52 µM,1.27 µM,–
O=C(NC1CC1)c1ccc(-c2cnn3c(NCc4ccc(F)cc4)ccnc23)cc1,> 8.22 µM,–,"IC50 (PBLUC_HILL_SLOPE 3.6, PBLUC_R_SQUARED 0.311, read-out: LUCIFERASE INFECTION ASSAY - IC50): 4.82 µM"
CN(CCOc1ccccc1)C(=O)c1ccc(Cl)c(S(=O)(=O)N(Cc2ccccc2)c2ccccc2)c1,> 10 µM,–,"IC50 (HEPG2TOX_HILL_SLOPE 5.5, HEPG2TOX_R_SQUARED 0.0292, PBLUC_HILL_SLOPE 16, PBLUC_R_SQUARED 0.261, read-out: LUCIFERASE INFECTION ASSAY - IC50): 9.56 µM"
CCN(CC)S(=O)(=O)c1ccc(Cl)c(NC(=O)CSc2nnc(-c3ccc(F)cc3)c3ccccc23)c1,> 10 µM,–,"IC50 (FFLUC_HILL_SLOPE 11.3, FFLUC_R_SQUARED 0.167, read-out: LUCIFERASE INFECTION ASSAY - IC50): > 10 µM"
COc1cc(/C=C(\C#N)c2cccn2C)cc(OC)c1OC,> 11.1 µM,–,"IC50 (HEPG2TOX_HILL_SLOPE 8.79, HEPG2TOX_R_SQUARED 0.806, read-out: LUCIFERASE INFECTION ASSAY - IC50): > 11.1 µM"
NS(=O)(=O)c1ccc(CCNC(=O)c2ccc3nccnc3c2)cc1,> 10 µM,> 10 µM,–
COC(=O)c1ccc2[nH]c3c(c2c1)CN(c1ncnc2ccccc12)CC3,9.79 µM,–,"IC50 (HEPG2TOX_HILL_SLOPE 2.18, 2.21, HEPG2TOX_R_SQUARED 0.310, 0.448, PBLUC_HILL_SLOPE 1.05, 1.29, PBLUC_R_SQUARED 0.612, 0.824, read-out: LUCIFERASE INFECTION ASSAY - IC50): 1.63 µM"
O=C(/C=C/c1ccc(F)cc1)Nc1cc([N+](=O)[O-])c(F)cc1F,> 10 µM,–,"IC50 (HEPG2TOX_HILL_SLOPE 14.4, HEPG2TOX_R_SQUARED 0.364, PBLUC_HILL_SLOPE 4.24, PBLUC_R_SQUARED 0.457, read-out: LUCIFERASE INFECTION ASSAY - IC50): 8.62 µM"
O=C(Nc1ccc2c(c1)OC(F)(F)O2)c1ccc(F)c(F)c1,> 10 µM,9.62 µM,–
Cc1csc(-c2nc(-c3ccc(C(C)(C)C)cc3)no2)c1,> 11.1 µM,> 11.1 µM,–
CCOC(=O)c1[nH]c2ccccc2c1-c1ccccc1,> 12.4 µM,> 12.4 µM,–
Cc1nc(CCNC(=O)Cc2cn(-c3ccccc3)nc2-c2ccc(Cl)cc2)cs1,> 10 µM,–,"IC50 (HEPG2TOX_HILL_SLOPE 0.133, HEPG2TOX_R_SQUARED 0.316, PBLUC_HILL_SLOPE 7.24, PBLUC_R_SQUARED 0.0479, read-out: LUCIFERASE INFECTION ASSAY - IC50): 8.62 µM"
FC(F)(F)/C(=N\C1(C(Cl)(Cl)Cl)Oc2ccccc2O1)NCc1ccco1,> 10 µM,> 10 µM,–
CCOC(=O)c1cc(NC(=O)c2ccc(Cl)c(S(=O)(=O)N(Cc3ccccc3)c3ccccc3OC)c2)cc(C(=O)OCC)c1,> 10 µM,–,"IC50 (FFLUC_HILL_SLOPE 3.02, FFLUC_R_SQUARED 0.375, read-out: LUCIFERASE INFECTION ASSAY - IC50): > 10 µM"
COc1ccccc1-n1c(SCC(=O)NNC(=O)c2ccc([N+](=O)[O-])cc2)nc2ccccc2c1=O,> 10 µM,–,"IC50 (FFLUC_HILL_SLOPE 2.82, FFLUC_R_SQUARED 0.966, read-out: LUCIFERASE INFECTION ASSAY - IC50): > 10 µM"
COc1cc2[nH]c(CSc3nnc(-c4ccccc4F)n3C3CC3)nc(=O)c2cc1OC,> 10 µM,–,"IC50 (PBLUC_HILL_SLOPE 1.81, PBLUC_R_SQUARED 0.0649, read-out: LUCIFERASE INFECTION ASSAY - IC50): > 10 µM"
Cc1cc(=O)oc2cc(OCC(=O)OCC(=O)c3c(-c4ccccc4)[nH]c4ccccc34)ccc12,7.83 µM,1.85 µM,–
CC(C)n1c(Sc2ncc([N+](=O)[O-])s2)nc2cc(Cl)ccc21,8.83 µM,–,"IC50 (FFLUC_HILL_SLOPE 44.5, FFLUC_R_SQUARED 0.755, HEPG2TOX_HILL_SLOPE 8.37, HEPG2TOX_R_SQUARED 0.175, PBLUC_HILL_SLOPE 4.42, PBLUC_R_SQUARED 0.266, read-out: LUCIFERASE INFECTION ASSAY - IC50): 5.37 µM"
CC(=O)O[C@H]1CC[C@]2(C)C3CC[C@]4(C)C(C5=CC(=O)OC5)CC[C@]4(O)C3CC[C@@H]2C1 (some centres not stated),1.14 µM,–,"IC50 (HEPG2TOX_HILL_SLOPE 2.72, HEPG2TOX_R_SQUARED 0.979, PBLUC_HILL_SLOPE 2.85, PBLUC_R_SQUARED 0.935, read-out: LUCIFERASE INFECTION ASSAY - IC50): 0.528 µM"
